From ChEMBL document CHEMBL3758109, “A novel triazole derivative of betulinic acid induces extrinsic and intrinsic apoptosis in human leukemia HL-60 cells” (Eur J Med Chem, 2016)
The source made the active and inactive calls. The calls are words filed in the database; no cut-off is given here.

Experiments:
[1] = Cytotoxicity against human HL60 cells assessed as cell growth inhibition at 10 uM after 48 hrs by MTT assay; format: functional; settings: HL-60, 48 h, read-out: GI
A549 [2] = experiment: Cytotoxicity against human A549 cells assessed as cell growth inhibition at 10 uM after 48 hrs by MTT assay; format: functional; settings: A549, 48 h, read-out: GI
[3] = Cytotoxicity against human MIAPaCa2 cells assessed as cell growth inhibition at 10 uM after 48 hrs by MTT assay; format: functional; settings: MIA PaCa-2, 48 h, read-out: GI
[4] = Cytotoxicity against human MIAPaCa2 cells assessed as cell growth inhibition after 48 hrs by MTT assay; format: functional, cell-based; settings: MIA PaCa-2, 48 h
[5] = Cytotoxicity against human PC3 cells assessed as cell growth inhibition after 48 hrs by MTT assay; format: functional, cell-based; settings: PC-3, 48 h
A549 [6] = experiment: Cytotoxicity against human A549 cells assessed as cell growth inhibition after 48 hrs by MTT assay; format: functional, cell-based; settings: A549, 48 h
[7] = Cytotoxicity against human PC3 cells assessed as cell growth inhibition at 10 uM after 48 hrs by MTT assay; format: functional; settings: PC-3, 48 h, read-out: GI
[8] = Cytotoxicity against human HL60 cells assessed as cell growth inhibition after 48 hrs by MTT assay; format: functional, cell-based; settings: HL-60, 48 h
[9] = Cell cycle arrest in human HL60 cells assessed as accumulation at G1 phase at 10 uM after 24 hrs by propidium iodide staining based flow cytometry (reference value: 46%); format: functional; settings: HL-60
HL-60 [10] = experiment: Induction of apoptosis in human HL60 cells at 20 uM after 24 hrs by propidium iodide staining based flow cytometry (reference value: 3%); format: functional
HL-60 [11] = experiment: Induction of apoptosis in human HL60 cells assessed as activation of caspase- 6 at 5 to 20 uM after 24 hrs by Western blot; format: functional, cell-based
HL-60 [12] = experiment: Induction of apoptosis in human HL60 cells assessed as activation of procaspase- 9 at 5 to 20 uM after 24 hrs by Western blot; format: functional, cell-based
HL-60 [13] = experiment: Induction of apoptosis in human HL60 cells assessed as decrease in Bcl-2/Bax ratio after 24 hrs by Western blot; format: functional, cell-based
[14] = Cell cycle arrest in human HL60 cells assessed as accumulation at S phase at 10 uM after 24 hrs by propidium iodide staining based flow cytometry (reference value: 48%); format: functional; settings: HL-60
[15] = Cell cycle arrest in human HL60 cells assessed as accumulation at G2/M phase at 10 uM after 24 hrs by propidium iodide staining based flow cytometry (reference value: 6%); format: functional; settings: HL-60
HL-60 [16] = experiment: Induction of apoptosis in human HL60 cells assessed as cleavage of PARP-1 at 5 to 20 uM after 24 hrs by Western blot; format: functional, cell-based
HL-60 [17] = experiment: Induction of apoptosis in human HL60 cells assessed as activation of caspase- 7 at 5 to 20 uM after 24 hrs by Western blot; format: functional, cell-based
[18] = Cell cycle arrest in human HL60 cells assessed as accumulation at G1 phase at 5 uM after 24 hrs by propidium iodide staining based flow cytometry (reference value: 46%); format: functional; settings: HL-60
HL-60 [19] = experiment: Induction of mitochondrial potential loss in human HL60 cells after 24 hrs by rhodamine-123 staining based flow cytometry (reference value: 3%); format: functional, cell-based
HL-60 [20] = experiment: Induction of mitochondrial potential loss in human HL60 cells at 10 uM after 24 hrs by rhodamine-123 staining based flow cytometry (reference value: 3%); format: functional
HL-60 [21] = experiment: Induction of apoptosis in human HL60 cells assessed as up regulation of Bax after 24 hrs by Western blot; format: functional, cell-based
[22] = Cell cycle arrest in human HL60 cells assessed as accumulation at G2/M phase at 20 uM after 24 hrs by propidium iodide staining based flow cytometry (reference value: 6%); format: functional; settings: HL-60
[23] = Cell cycle arrest in human HL60 cells assessed as accumulation at S phase at 5 uM after 24 hrs by propidium iodide staining based flow cytometry (reference value: 48%); format: functional; settings: HL-60
[24] = Cell cycle arrest in human HL60 cells assessed as accumulation at G1 phase at 20 uM after 24 hrs by propidium iodide staining based flow cytometry (reference value: 46%); format: functional; settings: HL-60
HL-60 [25] = experiment: Induction of apoptosis in human HL60 cells assessed as activation of procaspase- 8 at 5 to 20 uM after 24 hrs by Western blot; format: functional, cell-based
HL-60 [26] = experiment: Induction of apoptosis in human HL60 cells at 5 uM after 24 hrs by propidium iodide staining based flow cytometry (reference value: 3%); format: functional
[27] = Cell cycle arrest in human HL60 cells assessed as accumulation at G2/M phase at 5 uM after 24 hrs by propidium iodide staining based flow cytometry (reference value: 6%); format: functional; settings: HL-60
[28] = Cell cycle arrest in human HL60 cells assessed as accumulation at S phase at 20 uM after 24 hrs by propidium iodide staining based flow cytometry (reference value: 48%); format: functional; settings: HL-60
HL-60 [29] = experiment: Induction of apoptosis in human HL60 cells at 10 uM after 24 hrs by propidium iodide staining based flow cytometry (reference value: 3%); format: functional
HL-60 [30] = experiment: Induction of mitochondrial potential loss in human HL60 cells at 20 uM after 24 hrs by rhodamine-123 staining based flow cytometry (reference value: 3%); format: functional
HL-60 [31] = experiment: Induction of mitochondrial potential loss in human HL60 cells at 5 uM after 24 hrs by rhodamine-123 staining based flow cytometry (reference value: 3%); format: functional
HL-60 [32] = experiment: Induction of apoptosis in human HL60 cells assessed as activation of caspase- 3 at 5 to 20 uM after 24 hrs by Western blot; format: functional, cell-based
HL-60 [33] = experiment: Induction of apoptosis in human HL60 cells assessed as down regulation of Bcl-2 after 24 hrs by Western blot; format: functional, cell-based

`C=C(C)[C@@H]1CC[C@]2(C(=O)OCc3cn(-c4ccccc4OC)nn3)CC[C@]3(C)[C@H](CC[C@@H]4[C@@]5(C)CC[C@H](O)C(C)(C)[C@@H]5CC[C@]43C)[C@@H]12` gave an inhibition of growth at 10 µM [1] of 34%, an inhibition of growth at 10 µM (A549 [2]) of 12% and an inhibition of growth at 10 µM [3] of 50%. The IC50 [4] was 9 µM, the IC50 [5] was > 100 µM and the IC50 (A549 [6]) was > 100 µM. For the same compound, the inhibition of growth at 10 µM [7] was 3% and the IC50 [8] was 29 µM.
Work on `C=C(C)[C@@H]1CC[C@]2(C(=O)OCc3cn(-c4ccc(F)cc4)nn3)CC[C@]3(C)[C@H](CC[C@@H]4[C@@]5(C)CC[C@H](O)C(C)(C)[C@@H]5CC[C@]43C)[C@@H]12` yielded an inhibition of growth at 10 µM [1] of 69%, an Activity [9] of 53% and an inhibition of growth at 10 µM (A549 [2]) of 63%. For the same compound, the Activity (HL-60 [10]) was 14%, the inhibition of growth at 10 µM [3] was 75% and the Activity (HL-60 [11]) was “Active”. The IC50 [4] was 5 µM, the Activity (HL-60 [12]) was “Active” and the Activity (HL-60 [13]) was “Active”. For the same compound, the Activity [14] was 44%, the Activity [15] was 3% and the Activity (HL-60 [16]) was “Active”. The Activity (HL-60 [17]) was “Active”, the IC50 [5] was 7 µM and the Activity [18] was 48%. For the same compound, the Activity (HL-60 [19]) was “Dose-dependent effect”, the Activity (HL-60 [20]) was 18% and the IC50 (A549 [6]) was 7 µM. The inhibition of growth at 10 µM [7] was 62%, the Activity (HL-60 [21]) was “Active” and the Activity [22] was 1%. For the same compound, the Activity [23] was 47%, the Activity [24] was 90% and the Activity (HL-60 [25]) was “Active”. The IC50 [8] was 7 µM, the Activity (HL-60 [26]) was 5% and the Activity [27] was 5%. The Activity [28] was 9%, the Activity (HL-60 [29]) was 7% and the Activity (HL-60 [30]) was 27%. The Activity (HL-60 [31]) was 7%, the Activity (HL-60 [32]) was “Active” and the Activity (HL-60 [33]) was “Dose-dependent effect”.
Compound `C=C(C)[C@@H]1CC[C@]2(C(=O)OCc3cn(-c4ccc(Br)cc4)nn3)CC[C@]3(C)[C@H](CC[C@@H]4[C@@]5(C)CC[C@H](O)C(C)(C)[C@@H]5CC[C@]43C)[C@@H]12` has an inhibition of growth at 10 µM [1] of 39%, an inhibition of growth at 10 µM (A549 [2]) of 54% and an inhibition of growth at 10 µM [3] of 61%. It also gave an IC50 [4] of 7 µM, an IC50 [5] of 25 µM and an IC50 (A549 [6]) of 8 µM. For the same compound, the inhibition of growth at 10 µM [7] was 45% and the IC50 [8] was 25 µM.
For `C=C(C)[C@@H]1CC[C@]2(C(=O)O)CC[C@]3(C)[C@H](CC[C@@H]4[C@@]5(C)CC[C@H](O)C(C)(C)[C@@H]5CC[C@]43C)[C@@H]12` [BETULINIC ACID], the inhibition of growth at 10 µM [1] was 69%, the inhibition of growth at 10 µM (A549 [2]) was 68% and the inhibition of growth at 10 µM [3] was 70%. For the same compound, the IC50 [4] was 7 µM, the IC50 [5] was 7 µM and the IC50 (A549 [6]) was 8 µM. It also gave an inhibition of growth at 10 µM [7] of 70% and an IC50 [8] of 8 µM.
`C=C(C)[C@@H]1CC[C@]2(C(=O)OCc3cn(-c4cccc(OC)c4)nn3)CC[C@]3(C)[C@H](CC[C@@H]4[C@@]5(C)CC[C@H](O)C(C)(C)[C@@H]5CC[C@]43C)[C@@H]12` gave an inhibition of growth at 10 µM [1] of 5%, an inhibition of growth at 10 µM (A549 [2]) of 10% and an inhibition of growth at 10 µM [3] of 28%. It also gave an IC50 [4] of 22 µM, an IC50 [5] of 25 µM and an IC50 (A549 [6]) of 25 µM. The inhibition of growth at 10 µM [7] was 10% and the IC50 [8] was 25 µM.
Work on `C=C(C)[C@@H]1CC[C@]2(C(=O)OCc3cn(-c4cccnc4Cl)nn3)CC[C@]3(C)[C@H](CC[C@@H]4[C@@]5(C)CC[C@H](O)C(C)(C)[C@@H]5CC[C@]43C)[C@@H]12` yielded an inhibition of growth at 10 µM [1] of 46%, an inhibition of growth at 10 µM (A549 [2]) of 40% and an inhibition of growth at 10 µM [3] of 55%. It also gave an IC50 [4] of 8 µM, an IC50 [5] of 69 µM and an IC50 (A549 [6]) of 50 µM. For the same compound, the inhibition of growth at 10 µM [7] was 30% and the IC50 [8] was 18 µM.
For `C=C(C)[C@@H]1CC[C@]2(C(=O)OCc3cn(-c4ccc(OC)cc4)nn3)CC[C@]3(C)[C@H](CC[C@@H]4[C@@]5(C)CC[C@H](O)C(C)(C)[C@@H]5CC[C@]43C)[C@@H]12`, the inhibition of growth at 10 µM [1] was 8%, the inhibition of growth at 10 µM (A549 [2]) was 13% and the inhibition of growth at 10 µM [3] was 36%. The IC50 [4] was 22 µM, the IC50 [5] was > 100 µM and the IC50 (A549 [6]) was > 100 µM. It also gave an inhibition of growth at 10 µM [7] of 2% and an IC50 [8] of 30 µM.
Work on `C=C(C)[C@@H]1CC[C@]2(C(=O)OCc3cn(-c4cc(F)c(F)cc4Br)nn3)CC[C@]3(C)[C@H](CC[C@@H]4[C@@]5(C)CC[C@H](O)C(C)(C)[C@@H]5CC[C@]43C)[C@@H]12` yielded an inhibition of growth at 10 µM [1] of 48%, an inhibition of growth at 10 µM (A549 [2]) of 10% and an inhibition of growth at 10 µM [3] of 36%. For the same compound, the IC50 [4] was 27 µM, the IC50 [5] was 100 µM and the IC50 (A549 [6]) was 100 µM. The inhibition of growth at 10 µM [7] was 17% and the IC50 [8] was 12 µM.
In the case of `C=C(C)[C@@H]1CC[C@]2(C(=O)OCc3cn(-c4ccc5c(c4)OCO5)nn3)CC[C@]3(C)[C@H](CC[C@@H]4[C@@]5(C)CC[C@H](O)C(C)(C)[C@@H]5CC[C@]43C)[C@@H]12`, the inhibition of growth at 10 µM [1] is reported as 53%, the inhibition of growth at 10 µM (A549 [2]) is reported as 53% and the inhibition of growth at 10 µM [3] is reported as 56%. It also gave an IC50 [4] of 8 µM, an IC50 [5] of 9 µM and an IC50 (A549 [6]) of 8 µM. For the same compound, the inhibition of growth at 10 µM [7] was 49% and the IC50 [8] was 8 µM.
